From publication PMC11897524 (Frontiers in Pharmacology, 2025)

Assays:
Test in all cases: SelectScreen Z′-LYTE kinase assay
Format in all cases: biochemical
ABL1 = ABL1 (Homo sapiens, UniProt P00519)
Description: (§1) The kinase selectivity profile of BST-4 was performed by the SelectScreen kinase profiling service (Thermo Fisher Scientific). Kinase selectivity assay was performed using Z′-LYTE ™ screening protocol kit. Briefly, the test compounds were screened in 1% DMSO (final). For 10-point titrations, perform a 3-fold dilution starting at a starting concentration of 50 µM. Then 2.5 µL 4× test compound, 2.4 µL kinase buffer, 5 µL 2× kinase mixture and 2.5 µL 4× ATP solution was added in black 384-well plate. After shaking for 30 s, the plates were incubated for 60 min at room temperature. Add developing reagent solution and shake the plate for 30 s, then incubate for 1 h at room temperature. The Fluorescence intensity per well was read using a fluorescence plate reader. SelectScreen® Kinase Profiling Service used XLfit from IDBS. The dose response curve was curve fit to model number 205 (sigmoidal dose-response model) and inhibition rates were calculated. 50% inhibition was used as a activity threshold. IC50 values were calculated based on curve fitting.

TXK = TXK (Homo sapiens, UniProt P42681)
Description: as §1

FES = FES (Homo sapiens, UniProt P07332)
Description: as §1

LCK = LCK (Homo sapiens, UniProt P06239)
Description: as §1

LYN = LYN (Homo sapiens, UniProt P07948)
Description: as §1

EPHA5 = EPHA5 (Homo sapiens, UniProt P54756)
Description: as §1

MERTK = MERTK (Homo sapiens, UniProt Q12866)
Description: as §1

BLK = BLK (Homo sapiens, UniProt P51451)
Description: as §1

JAK3 = JAK3 (Homo sapiens, UniProt P52333)
Description: as §1

YES1 = YES1 (Homo sapiens, UniProt P07947)
Description: as §1

INSR = INSR (Homo sapiens, UniProt P06213)
Description: as §1

IGF1R = IGF1R (Homo sapiens, UniProt P08069)
Description: as §1

JAK1 = JAK1 (Homo sapiens, UniProt P23458)
Description: as §1

HCK = HCK (Homo sapiens, UniProt P08631)
Description: as §1

FGR = FGR (Homo sapiens, UniProt P09769)
Description: as §1

EPHB1 = EPHB1 (Homo sapiens, UniProt P54762)
Description: as §1

TEK = TEK (Homo sapiens, UniProt Q02763)
Description: as §1

ERBB4 = ERBB4 (Homo sapiens, UniProt Q15303)
Description: as §1

RET = RET (Homo sapiens, UniProt P07949)
Description: as §1

BTK = BTK (Homo sapiens, UniProt Q06187)
Description: as §1

SRMS = SRMS (Homo sapiens, UniProt Q9H3Y6)
Description: as §1

FGFR1 = FGFR1 (Homo sapiens, UniProt P11362)
Description: as §1

EPHA2 = EPHA2 (Homo sapiens, UniProt P29317)
Description: as §1

ZAP70 = ZAP70 (Homo sapiens, UniProt P43403)
Description: as §1

ITK = ITK (Homo sapiens, UniProt Q08881)
Description: as §1

TNK2 = TNK2 (Homo sapiens, UniProt Q07912)
Description: as §1

FER = FER (Homo sapiens, UniProt P16591)
Description: as §1

EPHA1 = EPHA1 (Homo sapiens, UniProt P21709)
Description: as §1

BMX = BMX (Homo sapiens, UniProt P51813)
Description: as §1

NTRK1 = NTRK1 (Homo sapiens, UniProt P04629)
Description: as §1

ABL2 = ABL2 (Homo sapiens, UniProt P42684)
Description: as §1

MET = MET (Homo sapiens, UniProt P08581)
Description: as §1

SRMS, sequence (Q9H3Y6 whole entry): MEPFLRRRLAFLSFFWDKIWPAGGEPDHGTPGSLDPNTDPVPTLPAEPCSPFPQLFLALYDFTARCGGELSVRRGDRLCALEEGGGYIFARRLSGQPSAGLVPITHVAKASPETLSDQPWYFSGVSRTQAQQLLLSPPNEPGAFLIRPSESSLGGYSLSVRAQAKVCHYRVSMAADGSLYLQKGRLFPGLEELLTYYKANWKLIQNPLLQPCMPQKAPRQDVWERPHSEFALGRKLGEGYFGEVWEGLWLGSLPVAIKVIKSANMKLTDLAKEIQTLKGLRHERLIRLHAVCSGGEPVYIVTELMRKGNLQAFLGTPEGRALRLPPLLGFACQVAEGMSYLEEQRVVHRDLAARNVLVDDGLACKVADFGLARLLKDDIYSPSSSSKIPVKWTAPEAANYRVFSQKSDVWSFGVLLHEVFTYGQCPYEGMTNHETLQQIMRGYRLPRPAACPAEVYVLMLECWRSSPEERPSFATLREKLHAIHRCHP
HCK, sequence (P08631 whole entry): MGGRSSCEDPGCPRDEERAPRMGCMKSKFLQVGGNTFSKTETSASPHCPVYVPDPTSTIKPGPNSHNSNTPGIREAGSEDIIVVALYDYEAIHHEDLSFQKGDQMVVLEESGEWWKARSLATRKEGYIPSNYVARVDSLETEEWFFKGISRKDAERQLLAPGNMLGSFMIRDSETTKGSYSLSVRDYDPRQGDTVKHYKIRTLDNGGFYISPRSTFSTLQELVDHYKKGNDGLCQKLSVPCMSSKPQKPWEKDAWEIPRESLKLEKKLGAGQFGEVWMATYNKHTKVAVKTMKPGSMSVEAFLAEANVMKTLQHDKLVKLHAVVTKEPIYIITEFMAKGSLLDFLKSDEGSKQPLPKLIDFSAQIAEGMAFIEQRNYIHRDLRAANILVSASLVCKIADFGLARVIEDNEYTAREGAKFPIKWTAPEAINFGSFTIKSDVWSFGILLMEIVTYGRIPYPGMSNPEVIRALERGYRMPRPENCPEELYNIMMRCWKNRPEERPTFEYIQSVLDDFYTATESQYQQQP
TEK, sequence (Q02763 23-1124): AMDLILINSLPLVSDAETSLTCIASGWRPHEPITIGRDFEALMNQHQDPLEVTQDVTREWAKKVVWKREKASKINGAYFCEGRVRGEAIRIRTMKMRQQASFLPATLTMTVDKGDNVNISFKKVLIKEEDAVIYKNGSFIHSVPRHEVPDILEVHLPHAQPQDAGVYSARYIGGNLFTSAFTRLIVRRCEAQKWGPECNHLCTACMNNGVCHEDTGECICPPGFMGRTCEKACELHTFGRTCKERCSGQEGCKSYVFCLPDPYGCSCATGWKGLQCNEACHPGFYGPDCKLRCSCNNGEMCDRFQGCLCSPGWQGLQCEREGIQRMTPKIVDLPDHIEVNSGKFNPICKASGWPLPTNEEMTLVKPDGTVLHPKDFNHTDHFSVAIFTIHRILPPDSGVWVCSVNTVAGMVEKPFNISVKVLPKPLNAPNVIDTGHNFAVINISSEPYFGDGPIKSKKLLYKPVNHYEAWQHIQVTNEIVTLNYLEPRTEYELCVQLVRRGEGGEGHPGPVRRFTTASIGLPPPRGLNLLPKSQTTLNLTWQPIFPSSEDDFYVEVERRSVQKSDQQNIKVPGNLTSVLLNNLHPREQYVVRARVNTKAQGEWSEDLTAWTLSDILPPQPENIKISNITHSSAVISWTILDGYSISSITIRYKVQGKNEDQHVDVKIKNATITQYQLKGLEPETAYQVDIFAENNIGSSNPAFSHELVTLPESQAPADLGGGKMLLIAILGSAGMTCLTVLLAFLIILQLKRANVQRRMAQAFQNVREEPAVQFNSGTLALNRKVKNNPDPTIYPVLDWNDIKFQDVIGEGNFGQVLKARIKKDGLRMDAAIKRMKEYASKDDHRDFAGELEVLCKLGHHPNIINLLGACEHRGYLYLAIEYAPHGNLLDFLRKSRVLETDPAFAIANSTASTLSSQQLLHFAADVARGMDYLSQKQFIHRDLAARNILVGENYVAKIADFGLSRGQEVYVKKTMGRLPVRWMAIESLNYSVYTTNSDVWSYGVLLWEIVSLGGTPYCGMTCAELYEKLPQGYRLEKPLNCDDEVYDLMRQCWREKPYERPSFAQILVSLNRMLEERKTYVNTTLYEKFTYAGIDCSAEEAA
EPHA2, sequence (P29317 24-976): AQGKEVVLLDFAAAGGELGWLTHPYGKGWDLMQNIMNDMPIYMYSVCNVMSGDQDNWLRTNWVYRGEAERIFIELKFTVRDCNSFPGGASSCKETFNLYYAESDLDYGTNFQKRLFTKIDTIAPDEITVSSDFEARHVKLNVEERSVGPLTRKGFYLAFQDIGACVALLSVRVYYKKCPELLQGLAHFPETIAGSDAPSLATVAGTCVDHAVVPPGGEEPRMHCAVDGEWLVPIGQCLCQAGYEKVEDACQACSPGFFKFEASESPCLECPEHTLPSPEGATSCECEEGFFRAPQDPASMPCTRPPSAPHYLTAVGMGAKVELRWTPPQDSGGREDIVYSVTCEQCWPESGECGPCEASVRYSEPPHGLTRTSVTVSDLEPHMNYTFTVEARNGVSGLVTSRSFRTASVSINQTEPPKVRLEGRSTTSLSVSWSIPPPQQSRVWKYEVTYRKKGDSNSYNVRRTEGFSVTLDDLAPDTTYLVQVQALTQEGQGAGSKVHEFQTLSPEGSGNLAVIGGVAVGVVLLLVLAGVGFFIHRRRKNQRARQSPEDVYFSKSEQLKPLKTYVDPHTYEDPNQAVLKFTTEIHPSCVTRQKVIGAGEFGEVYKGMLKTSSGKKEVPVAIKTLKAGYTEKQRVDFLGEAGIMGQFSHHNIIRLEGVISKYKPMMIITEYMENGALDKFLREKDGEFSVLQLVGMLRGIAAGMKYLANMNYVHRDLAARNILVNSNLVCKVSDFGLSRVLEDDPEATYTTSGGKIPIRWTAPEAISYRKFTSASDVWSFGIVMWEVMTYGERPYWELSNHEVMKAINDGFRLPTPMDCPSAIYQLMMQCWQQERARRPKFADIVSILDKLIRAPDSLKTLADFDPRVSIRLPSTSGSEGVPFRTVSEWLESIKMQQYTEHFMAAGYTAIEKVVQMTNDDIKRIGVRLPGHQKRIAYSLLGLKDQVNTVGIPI
IGF1R, sequence (P08069 31-1367): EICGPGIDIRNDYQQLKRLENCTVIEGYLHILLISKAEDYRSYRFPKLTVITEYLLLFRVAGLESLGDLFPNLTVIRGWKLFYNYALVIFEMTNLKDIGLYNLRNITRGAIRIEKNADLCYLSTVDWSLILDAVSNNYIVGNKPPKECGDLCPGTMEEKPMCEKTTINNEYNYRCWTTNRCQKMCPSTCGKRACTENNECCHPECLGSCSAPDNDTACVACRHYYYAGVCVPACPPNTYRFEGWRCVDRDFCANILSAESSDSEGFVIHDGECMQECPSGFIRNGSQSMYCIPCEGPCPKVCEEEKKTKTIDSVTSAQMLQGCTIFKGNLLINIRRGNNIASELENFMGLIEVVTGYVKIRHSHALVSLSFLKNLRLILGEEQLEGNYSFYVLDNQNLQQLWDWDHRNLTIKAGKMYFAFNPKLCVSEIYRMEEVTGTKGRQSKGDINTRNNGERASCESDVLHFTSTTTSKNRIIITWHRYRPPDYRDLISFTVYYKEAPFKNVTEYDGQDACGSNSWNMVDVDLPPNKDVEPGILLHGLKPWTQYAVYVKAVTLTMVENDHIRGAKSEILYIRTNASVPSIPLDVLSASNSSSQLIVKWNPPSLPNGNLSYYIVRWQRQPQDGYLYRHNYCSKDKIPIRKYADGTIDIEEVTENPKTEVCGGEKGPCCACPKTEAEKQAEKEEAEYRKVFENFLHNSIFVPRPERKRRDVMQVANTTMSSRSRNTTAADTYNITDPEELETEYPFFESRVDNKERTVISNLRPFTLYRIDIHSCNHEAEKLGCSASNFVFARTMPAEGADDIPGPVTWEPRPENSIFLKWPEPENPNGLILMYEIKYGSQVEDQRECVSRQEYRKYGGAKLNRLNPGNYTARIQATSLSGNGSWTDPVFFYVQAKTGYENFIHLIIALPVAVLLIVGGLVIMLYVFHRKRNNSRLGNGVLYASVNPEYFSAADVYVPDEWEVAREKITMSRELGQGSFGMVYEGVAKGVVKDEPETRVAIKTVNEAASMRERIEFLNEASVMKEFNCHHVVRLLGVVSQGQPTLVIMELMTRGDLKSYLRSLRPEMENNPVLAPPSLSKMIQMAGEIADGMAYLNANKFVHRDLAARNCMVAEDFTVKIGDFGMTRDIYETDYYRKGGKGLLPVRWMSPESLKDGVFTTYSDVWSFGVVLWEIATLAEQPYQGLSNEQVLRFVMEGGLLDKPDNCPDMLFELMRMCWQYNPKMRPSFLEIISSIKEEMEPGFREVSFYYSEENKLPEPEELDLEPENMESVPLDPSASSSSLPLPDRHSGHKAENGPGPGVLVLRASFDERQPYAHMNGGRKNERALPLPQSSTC
BMX, sequence (P51813 whole entry): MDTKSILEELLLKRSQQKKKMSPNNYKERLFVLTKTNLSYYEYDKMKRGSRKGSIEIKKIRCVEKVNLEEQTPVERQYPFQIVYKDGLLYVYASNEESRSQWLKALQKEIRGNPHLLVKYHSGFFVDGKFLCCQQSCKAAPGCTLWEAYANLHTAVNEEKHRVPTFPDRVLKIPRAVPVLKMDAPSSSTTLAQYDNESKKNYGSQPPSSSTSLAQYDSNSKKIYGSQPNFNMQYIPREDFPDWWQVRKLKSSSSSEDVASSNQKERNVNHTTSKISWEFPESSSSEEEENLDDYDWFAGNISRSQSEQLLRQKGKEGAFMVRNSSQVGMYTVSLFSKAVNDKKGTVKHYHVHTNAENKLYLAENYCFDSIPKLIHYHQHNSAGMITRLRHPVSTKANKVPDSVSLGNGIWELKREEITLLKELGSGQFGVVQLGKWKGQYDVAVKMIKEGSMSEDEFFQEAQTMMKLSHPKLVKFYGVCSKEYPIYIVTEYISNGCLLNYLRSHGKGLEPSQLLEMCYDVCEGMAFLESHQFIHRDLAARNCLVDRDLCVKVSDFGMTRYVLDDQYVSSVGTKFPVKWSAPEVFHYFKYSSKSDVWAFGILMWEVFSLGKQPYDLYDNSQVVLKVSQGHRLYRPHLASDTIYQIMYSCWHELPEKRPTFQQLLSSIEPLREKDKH

Work on `CCS(=O)(=O)Cc1cnc(Oc2c(F)cc(F)cc2OCCCCOc2ccc(/C=C/c3cc(OC)cc(OC)c3)cc2)c(-c2cc(C)c3c(=O)[nH]ccn23)c1` [BST-4] yielded an IC50 (ABL1) greater than 10 µM, an inhibition at 1 µM (ABL1) of 0.31% and an IC50 (TXK) greater than 10 µM. The inhibition at 1 µM (TXK) was 0.09%, the IC50 (FES) was greater than 10 µM and the inhibition at 1 µM (FES) was 0.05%. For the same compound, the IC50 (LCK) was greater than 10 µM, the inhibition at 1 µM (LCK) was 0.77% and the IC50 (LYN) was greater than 10 µM. The inhibition at 1 µM (LYN) was 1.96%, the IC50 (EPHA5) was greater than 10 µM and the inhibition at 1 µM (EPHA5) was 3.17%. It also gave an IC50 (MERTK) greater than 10 µM, an inhibition at 1 µM (MERTK) of 0.07% and an IC50 (BLK) greater than 10 µM. It also gave an inhibition at 1 µM (BLK) of 0.54%, an IC50 (JAK3) greater than 10 µM and an inhibition at 1 µM (JAK3) of 0.39%. The IC50 (YES1) was greater than 10 µM, the inhibition at 1 µM (YES1) was 1.22% and the IC50 (INSR) was greater than 10 µM. It also gave an inhibition at 1 µM (INSR) of 2.53%, an IC50 (IGF1R) greater than 10 µM and an inhibition at 1 µM (IGF1R) of 0.91%. It also gave an IC50 (JAK1) greater than 10 µM, an inhibition at 1 µM (JAK1) of 1.21% and an IC50 (HCK) greater than 10 µM. For the same compound, the inhibition at 1 µM (HCK) was 0.86%, the IC50 (FGR) was greater than 10 µM and the inhibition at 1 µM (FGR) was 0.28%. For the same compound, the IC50 (EPHB1) was greater than 10 µM, the inhibition at 1 µM (EPHB1) was 3.35% and the IC50 (TEK) was greater than 10 µM. It also gave an inhibition at 1 µM (TEK) of 4.16%, an IC50 (ERBB4) greater than 10 µM and an inhibition at 1 µM (ERBB4) of 0.78%. It also gave an IC50 (RET) greater than 10 µM, an inhibition at 1 µM (RET) of 0.41% and an IC50 (BTK) greater than 10 µM. For the same compound, the inhibition at 1 µM (BTK) was 0.11%, the IC50 (SRMS) was greater than 10 µM and the inhibition at 1 µM (SRMS) was 0.53%. It also gave an IC50 (FGFR1) greater than 10 µM, an inhibition at 1 µM (FGFR1) of 0.59% and an IC50 (EPHA2) greater than 10 µM. It also gave an inhibition at 1 µM (EPHA2) of 0.5%, an IC50 (ZAP70) greater than 10 µM and an inhibition at 1 µM (ZAP70) of 0.68%. The IC50 (ITK) was greater than 10 µM, the inhibition at 1 µM (ITK) was 0.75% and the IC50 (TNK2) was greater than 10 µM. For the same compound, the inhibition at 1 µM (TNK2) was 0.93%, the IC50 (FER) was greater than 10 µM and the inhibition at 1 µM (FER) was 0.03%. The IC50 (EPHA1) was greater than 10 µM, the inhibition at 1 µM (EPHA1) was 0.02% and the IC50 (BMX) was greater than 10 µM. It also gave an inhibition at 1 µM (BMX) of 3.05%, an IC50 (NTRK1) greater than 10 µM and an inhibition at 1 µM (NTRK1) of 0.67%. For the same compound, the IC50 (ABL2) was greater than 10 µM, the inhibition at 1 µM (ABL2) was 0.44% and the IC50 (MET) was greater than 10 µM. The inhibition at 1 µM (MET) was 0.68%.
